Source: US20230047816A1 (priority 2018, published 2023)

Legend:
[1] = test system: Cln7Δex2 mice; experiment: AZ67 in vivo administration in Batten disease model; conditions: 1 nmol/mouse intracerebroventricularly every 24 h, two months
Description: AZ67 for in vivo usage was dissolved in 20% (wt/vol) PEG200 in PBS to a 20 mM concentration. 4 groups were generated (4-6 animals/group), namely: WT-vehicle, CLN7Δex2-vehicle, WT-AZ67, CLN7Δex2-AZ67. The canula was inserted intracerebroventricularly at the age of 8 weeks and, after at least of 15 days of recovery, we injected the AZ67 at the dose identified previously (l nmol/mouse) every 24 h. The duration of the experiment was determined by the presence of hindlimb clasping the CLN7Δex2-control (vehicle), being this time two months. After this, the animals were perfused, and their brains dissected to be investigated by immunofluorescence and electron microscopy (EM).
Mice (5 months for AZ67 intraventricular injections; 3 months for mCAT expression approach) were anaesthetized by intraperitoneal injection of a mixture of xylazine hydrochloride (Rompun; Bayer) and ketamine hydrochloride/chlorbutol (Imalgene; Merial) (1:4) at 1 ml per kg body weight and then perfused intra-aortically with 0.9% NaCl followed by 5 ml p/g body weight of Somogyi (4% (wt/vol) paraformaldehyde, and 0.2% (vol/vol) picric acid, in 0.1 M PB; pH 7.4). After perfusion, brains were dissected out sagitally in two parts and post-fixed with Somogyi for 2 h at room temperature. Brain blocks were rinsed successively for 10 min, 30 min and 2 h with 0.1 M PB solution and cryoprotected in 10%, 20% and 30% (wt/vol) sucrose in PB sequentially, until they sank. After cryoprotection, 40-m-thick sagittal sections were obtained with a freezing-sliding cryostat (Leica). Sectioning of WT and Cln7Δex2 brains were performed under the same conditions and sessions. The sections were collected serially in a 12-well plate in 0.1 M PB, rinsed three times for 10 min in 0.1 M PB and used for subsequent immunohistochemistry and lipofuscin observation. The section-containing wells that were not used were kept in freezer mix (30% (vol/vol) polyethylene glycol, 30% (vol/vol) glycerol in 0.1 M PB) at −20° C. […]
Sections were examined with epifluorescence and the appropriate filter sets under an Operetta CLS high-content imaging system (PerkinElmer). […] Images were analysed with the Harmony software with PhenoLOGIC (PerkinElmer). Interest brain areas (cortex, hippocampus and cerebellum) were selected and subsequently quantified as mean intensity per area by using the ‘measure rectangle’ function, which represents the mean intensity of a channel per selected area.

[2] = test system: primary neurons; experiment: NADPH/NADP ratio under excitotoxic conditions induced by glutamate; assay type: cell-based; conditions: 0.01 μM, FIG. 4A
[3] = test system: neurons from Cln7 knock out (KO) mice; experiment: In vitro model of Batten disease, glycolytic flux; assay type: cell-based, mouse; conditions: 10 nM, 24 hours
Description: Primary cultures of C57BL/6J WT and Cln7Δex2 mice cortical neurons were prepared from fetal animals of 14.5 days of gestation, seeded at 1.8·10^5 cells/cm2 in plastic plates coated with poly-D-lysine […] and incubated in Neurobasal (Life Technologies) supplemented with 2 mM glutamine, 5 mM of glucose, 0.25 mM pyruvate and 2% B27 supplement (Life Technologies). Cells were incubated at 37° C. in a humidified 5% CO2-containing atmosphere. At 72 hours after plating, medium was replaced using Neurobasal (Life Technologies) supplemented with 2 mM glutamine, 5 mM glucose, 0.25 mM pyruvate and 2% B27 supplement (Life Technologies) minus antioxidants (MAO; i.e., lacking vitamin E, vitamin E acetate, superoxide dismutase, catalase, and glutathione). Six days after the plating medium was replaced again. Cells were used at day 9.
Glycolytic flux was measured in 8 cm2 flasks of adherent cells at 60-70% confluence containing a central microcentrifuge tube with 1 ml H2O for 3H2O equilibration. […]. […] Glycolytic flux was measured by assaying the rate of 3H2O production from [3-3H]glucose by incubating cells with 5μ Ci D-[3-3H]glucose in KRPG buffer per flask for 120 min, as previously described [Vicente-Gutierrez, C. et al. Astrocytic mitochondrial ROS modulate brain metabolism and mouse behavior. […] The 3H2O was then measured by liquid scintillation counting (Tri-Carb 4810 TR, PerkinElmer). […]

## Cc1noc(C)c1Cn1cc(C#N)c2cc(Oc3ccc(NC(=O)[C@@H]4CCCN4)cc3)ccc21 [AZ67, (2S)-N-[4-({3-cyano-1-[(3,5-dimethyl-1,2-oxazol-4-yl)methyl]-1H-indol-5-yl}oxy)phenyl]pyrrolidine-2-carboxamide]
[1]
  accumulation of SCMAS in the cortex: prevented
  accumulation of lipofuscin in the cortex: prevented
  accumulation of reactive astroglia in the cortex: prevented
  hindlimb paralysis: prevented
[2]
  NADPH/NADP ratio: restore NADPH/NADP ratio
[3]
  rate of glycolysis (glycolytic flux): reduce the excessive glycolysis to normal levels
